Test results: US9845319B2, “Amide substituted thiazoles as modulators of RORyt” (Janssen Pharmaceutica NV, priority 2014, dated 2017)

Tests used:
[1] = target: T1, human RORγt ligand binding domain (RORγt LBD) (Homo sapiens, UniProt P51449); experiment: RORγt ThermoFluor assay; conditions: estimated from thermal shift concentration response
T1 construct: His-tag (N); TurboTEV protease cleavage site (ENLYFQG) (N); made in house; host or cells: E. coli (pHIS1, a modified pET expression vector)
T1 sequence (P51449 with tags, fused parts or gaps): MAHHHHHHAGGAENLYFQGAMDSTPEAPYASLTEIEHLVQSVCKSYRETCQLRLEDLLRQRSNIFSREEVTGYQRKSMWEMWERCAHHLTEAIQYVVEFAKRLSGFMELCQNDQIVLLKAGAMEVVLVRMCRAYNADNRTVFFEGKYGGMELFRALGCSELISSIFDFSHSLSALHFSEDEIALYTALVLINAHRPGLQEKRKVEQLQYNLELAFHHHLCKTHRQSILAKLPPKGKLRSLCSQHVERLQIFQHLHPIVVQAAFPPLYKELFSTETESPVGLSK
Method in brief: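 Thermal shift of RORγt LBD (0.065 mg/mL) with 60 μM 1,8-ANS in 100 mM Hepes pH 7.0, NaCl, GSH, 0.002% Tween-20, heated at 1° C/min. ANS fluorescence tracked versus temperature; ΔTm relative to DMSO wells. Compounds serially diluted 1:2 from 10 mM DMSO stock.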

full-length human RORγt = target: T2, full-length human RORγt (Homo sapiens, UniProt P51449); experiment: RORγt (full-length human) Reporter Assay, Conditions A; assay type: cell-based; conditions: for IC50: HEK293T cells, GAL4-DBD-RORγt, luciferase, read-out: RORγt (FL) Reporter Assay A, IC50; for inhibition at 6 µM: read-out: RORγt (FL) Reporter Assay A, % inhibition @ 6 μM, 6 μM compound; for inhibition at 2 µM: read-out: RORγt (FL) Reporter Assay A, % inhibition (* at 2 μM), 2 μM compound concentration (footnote *)
T2 construct: expressed in transfected cells; host or cells: HEK293T, transiently transfected with pCMV-BD-ROR
T2 sequence (P51449 1-497 isoform P51449-2): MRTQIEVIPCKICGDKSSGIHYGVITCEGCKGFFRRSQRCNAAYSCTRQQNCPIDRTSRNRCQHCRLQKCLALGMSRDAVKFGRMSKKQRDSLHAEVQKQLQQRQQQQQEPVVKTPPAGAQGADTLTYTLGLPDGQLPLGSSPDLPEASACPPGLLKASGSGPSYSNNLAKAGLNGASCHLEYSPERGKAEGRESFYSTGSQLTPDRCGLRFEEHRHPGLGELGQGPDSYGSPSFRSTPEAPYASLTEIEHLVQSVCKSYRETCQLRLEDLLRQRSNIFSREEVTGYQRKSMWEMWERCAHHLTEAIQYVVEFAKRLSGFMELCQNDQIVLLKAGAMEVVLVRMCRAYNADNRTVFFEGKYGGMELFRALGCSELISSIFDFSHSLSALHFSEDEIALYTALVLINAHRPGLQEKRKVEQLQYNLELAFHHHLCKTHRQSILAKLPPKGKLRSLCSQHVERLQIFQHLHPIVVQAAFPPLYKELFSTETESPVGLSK
Method in brief: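 Dual-luciferase readout after overnight (16 to 20 hours) treatment: firefly values scaled between DMSO-only and saturating reference-compound controls, then corrected by Renilla. Percent inhibition calculated against DMSO control, with IC50 derived from concentration-response plots.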

| SMILES | Kd [1] | IC50 (full-length human RORγt) | inhibition at 6 µM (full-length human RORγt) | inhibition at 2 µM (full-length human RORγt) | inhibition at 0.22 µM (full-length human RORγt; 0.22 μM compound concentration (footnote ***), read-out: RORγt (FL) Reporter Assay A, % inhibition (*** at 0.22 μM)) | inhibition at 0.67 µM (full-length human RORγt; 0.67 μM compound concentration, read-out: RORγt (FL) Reporter Assay A, % inhibition (** at 0.67 μM)) |
| --- | --- | --- | --- | --- | --- | --- |
| CC[C@H](NS(=O)(=O)c1ccc(-c2sc(-c3noc(CC(C)(C)C(=O)O)n3)nc2C(=O)N2CCC(F)(F)CC2)c(C(F)F)c1Cl)C(F)(F)F [Example 10/1, (S)-3-(3-(5-(3-Chloro-2-(difluoromethyl)-4-(N-(1,1,1-trifluorobutan-2-yl)sulfamoyl)phenyl)-4-(4,4-difluoropiperidine-1-carbonyl)thiazol-2-yl)-1,2,4-oxadiazol-5-yl)-2,2-dimethylpropanoic acid] | 0.0014 nM | 66 nM | 104% | – | – | – |
| CC[C@H](NS(=O)(=O)c1ccc(-c2sc(-c3noc(CC(C)(C)C(=O)O)n3)nc2C(=O)N2CC(F)(F)C[C@@H]2C)c(C(F)F)c1Cl)C(F)(F)F [Example 10/3, 3-(3-(5-(3-Chloro-2-(difluoromethyl)-4-(N—((S)-1,1,1-trifluorobutan-2-yl)sulfamoyl)phenyl)-4-((S)-4,4-difluoro-2-methylpyrrolidine-1-carbonyl)thiazol-2-yl)-1,2,4-oxadiazol-5-yl)-2,2-dimethylpropanoic acid] | 0.0036 nM | 50 nM | 97% | – | – | – |
| C[C@H](NS(=O)(=O)c1ccc(-c2sc(-c3noc(C(C)(C)O)n3)nc2C(=O)N2CCC(F)CC2)c(C(F)F)c1F)C(F)(F)F [Example 11/1, (S)-3-(Difluoromethyl)-2-fluoro-4-(4-(4-fluoropiperidine-1-carbonyl)-2-(5-(2-hydroxypropan-2-yl)-1,2,4-oxadiazol-3-yl)thiazol-5-yl)-N-(1,1,1-trifluoropropan-2-yl)benzenesulfonamide] | 31 nM | 120 nM | 103% | – | – | – |
| C[C@H](NS(=O)(=O)c1ccc(-c2sc(-c3noc(C(C)(C)O)n3)nc2C(=O)N2CCC(F)(F)CC2)c(C(F)F)c1F)C(F)(F)F [Example 11/2, (S)-3-(Difluoromethyl)-4-(4-(4,4-difluoropiperidine-1-carbonyl)-2-(5-(2-hydroxypropan-2-yl)-1,2,4-oxadiazol-3-yl)thiazol-5-yl)-2-fluoro-N-(1,1,1-trifluoropropan-2-yl)benzenesulfonamide] | 12 nM | 46 nM | 108% | – | – | – |
| CC[C@H](NS(=O)(=O)c1ccc(-c2sc(-c3noc(CC(C)(C)O)n3)nc2C(=O)N2CCC(F)CC2)c(C(F)F)c1F)C(F)(F)F [Example 12, (S)-3-(Difluoromethyl)-2-fluoro-4-(4-(4-fluoropiperidine-1-carbonyl)-2-(5-(2-hydroxy-2-methylpropyl)-1,2,4-oxadiazol-3-yl)thiazol-5-yl)-N-(1,1,1-trifluorobutan-2-yl)benzenesulfonamide] | 9.4 nM | 68 nM | 103% | – | – | – |
| CC[C@H](NS(=O)(=O)c1ccc(-c2sc(-c3noc(CC(C)(C)O)n3)nc2C(=O)N2CCC(F)(F)C2)c(C(F)F)c1F)C(F)(F)F [Example 12/1, (S)-3-(Difluoromethyl)-4-(4-(3,3-difluoropyrrolidine-1-carbonyl)-2-(5-(2-hydroxy-2-methylpropyl)-1,2,4-oxadiazol-3-yl)thiazol-5-yl)-2-fluoro-N-(1,1,1-trifluorobutan-2-yl)benzenesulfonamide] | 30 nM | 120 nM | 102% | – | – | – |
| C[C@H](NS(=O)(=O)c1ccc(-c2sc(-c3cc(C(C)(C)O)on3)nc2C(=O)N2CCC(F)(F)CC2)c(Cl)c1Cl)C(F)(F)F [Example 13, (S)-2,3-Dichloro-4-(4-(4,4-difluoropiperidine-1-carbonyl)-2-(5-(2-hydroxypropan-2-yl)isoxazol-3-yl)thiazol-5-yl)-N-(1,1,1-trifluoropropan-2-yl)benzenesulfonamide] | 1.3 nM | 12 nM | – | 105% | – | – |
| C[C@H](NS(=O)(=O)c1ccc(-c2sc(-c3cc(C(C)(C)O)on3)nc2C(=O)N2CCC(F)CC2)c(Cl)c1Cl)C(F)(F)F [Example 13/1, (S)-2,3-Dichloro-4-(4-(4-fluoropiperidine-1-carbonyl)-2-(5-(2-hydroxypropan-2-yl)isoxazol-3-yl)thiazol-5-yl)-N-(1,1,1-trifluoropropan-2-yl)benzenesulfonamide] | 4.9 nM | 21 nM | – | 101% | – | – |
| C[C@H](NS(=O)(=O)c1ccc(-c2sc(-c3noc(=O)[nH]3)nc2C(=O)N2CCC(F)CC2)c(Cl)c1Cl)C(F)(F)F [Example 14, (S)-2,3-Dichloro-4-(4-(4-fluoropiperidine-1-carbonyl)-2-(5-oxo-4,5-dihydro-1,2,4-oxadiazol-3-yl)thiazol-5-yl)-N-(1,1,1-trifluoropropan-2-yl)benzenesulfonamide] | 280 nM | > 2000 nM | – | -25% | – | – |
| C[C@H](NS(=O)(=O)c1ccc(-c2sc(-c3cnn[nH]3)nc2C(=O)N2CCCC[C@@H]2C)c(Cl)c1Cl)C(F)(F)F [Example 16, 2,3-Dichloro-4-(4-((S)-2-methylpiperidine-1-carbonyl)-2-(1H-1,2,3-triazol-5-yl)thiazol-5-yl)-N—((S)-1,1,1-trifluoropropan-2-yl)benzenesulfonamide] | 6.6 nM | 14 nM | – | 100% | – | – |
| CCN(CC)C(=O)c1nc(-c2cccc(C(C)(C)O)n2)sc1-c1ccc(S(=O)(=O)N[C@@H](C)C(F)(F)F)c(Cl)c1Cl [Example 17, (S)-5-(2,3-Dichloro-4-(N-(1,1,1-trifluoropropan-2-yl)sulfamoyl)phenyl)-N,N-diethyl-2-(6-(2-hydroxypropan-2-yl)pyridin-2-yl)thiazole-4-carboxamide] | 7.1 nM | 14 nM | – | 104% | – | – |
| CCN(CC)C(=O)c1nc(-c2cc(C(C)(C)O)ccn2)sc1-c1ccc(S(=O)(=O)N[C@@H](C)C(F)(F)F)c(Cl)c1Cl [Example 17/1, (S)-5-(2,3-Dichloro-4-(N-(1,1,1-trifluoropropan-2-yl)sulfamoyl)phenyl)-N,N-diethyl-2-(4-(2-hydroxypropan-2-yl)pyridin-2-yl)thiazole-4-carboxamide] | 7.8 nM | 27 nM | – | – | 91% | – |
| CCN(CC)C(=O)c1nc(-c2cc(C(C)(C)O)ncn2)sc1-c1ccc(S(=O)(=O)N[C@@H](C)C(F)(F)F)c(Cl)c1Cl [Example 17/2, (S)-5-(2,3-Dichloro-4-(N-(1,1,1-trifluoropropan-2-yl)sulfamoyl)phenyl)-N,N-diethyl-2-(6-(2-hydroxypropan-2-yl)pyrimidin-4-yl)thiazole-4-carboxamide] | 2.8 nM | 31 nM | – | – | – | 106% |
| CC[C@H](NS(=O)(=O)c1ccc(-c2sc(-c3cccc(CC(C)(C)C(=O)O)n3)nc2C(=O)N2CC(F)(F)C[C@@H]2C)c(C(F)F)c1F)C(F)(F)F [Example 19/1, 3-(6-(4-((S)-4,4-Difluoro-2-methylpyrrolidine-1-carbonyl)-5-(2-(difluoromethyl)-3-fluoro-4-(N—((S)-1,1,1-trifluorobutan-2-yl)sulfamoyl)phenyl)thiazol-2-yl)pyridin-2-yl)-2,2-dimethylpropanoic acid] | 0.023 nM | 10 nM | – | 98% | – | – |
| C[C@H]1CCCCN1C(=O)c1nc(-c2noc(CC(C)(C)C(=O)O)n2)sc1-c1ccc(C(O)(C(F)(F)F)C(F)(F)F)c(Cl)c1Cl [Example 20, (S)-3-(3-(5-(2,3-Dichloro-4-(1,1,1,3,3,3-hexafluoro-2-hydroxypropan-2-yl)phenyl)-4-(2-methylpiperidine-1-carbonyl)thiazol-2-yl)-1,2,4-oxadiazol-5-yl)-2,2-dimethylpropanoic acid] | 0.026 nM | 12 nM | – | 101% | – | – |
| CC1(NS(=O)(=O)c2ccc(-c3sc(-c4nnc(C(C)(C)O)o4)nc3C(=O)N3CCC(F)(F)CC3)c(Cl)c2Cl)CC1 [Example 21, 2,3-Dichloro-4-(4-(4,4-difluoropiperidine-1-carbonyl)-2-(5-(2-hydroxypropan-2-yl)-1,3,4-oxadiazol-2-yl)thiazol-5-yl)-N-(1-methylcyclopropyl)benzenesulfonamide] | 4.7 nM | 67 nM | 107% | – | – | – |
